Test results published in PubChem BioAssay AID248 (DTP/NCI, 2004).
Values joined by “and” are separate entries in the source; they are usually repeats but may differ in a detail not shown here. Equal values may be shown once. Toxic doses and inconclusive results are not listed. No stated cut-off is given here; in the data, active means T/C of 150% or more; inactive means T/C below 125%.

Test system: L1210 leukemia ip in BDF1 mice, survival T/C
Test: NCI In Vivo Anticancer Drug Screen. Data for tumor model L1210 Leukemia (intraperitoneal) in B6D2F1 (BDF1) mice
Conditions: endpoint: mean survival time, higher = longer survival
Procedure, shortened: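 Value reflects the ratio of survival in compound-treated mice to survival in vehicle-treated controls, with both groups carrying the same transplanted tumor.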

[1] = dose: 50.0 mg/kg/injection, schedule: Q01DX009 (ip), vehicle: saline with Tween-80
[2] = dose: 100.0 mg/kg/injection, schedule: Q01DX001 (ip), vehicle: carboxymethylcellulose (CMC)
[3] = dose: 100.0 mg/kg/injection, schedule: Q01DX009 (ip), vehicle: saline with Tween-80
[4] = dose: 200.0 mg/kg/injection, schedule: Q01DX001 (ip), vehicle: carboxymethylcellulose (CMC)
[5] = dose: 400.0 mg/kg/injection, schedule: Q01DX001 (ip), vehicle: carboxymethylcellulose (CMC)
[6] = dose: 100.0 mg/kg/injection, schedule: Q04DX003 (ip), vehicle: Klucel (hydroxypropylcellulose) (HPC)
[7] = dose: 200.0 mg/kg/injection, schedule: Q04DX003 (ip), vehicle: Klucel (hydroxypropylcellulose) (HPC)
[8] = dose: 400.0 mg/kg/injection, schedule: Q04DX003 (ip), vehicle: Klucel (hydroxypropylcellulose) (HPC)
[9] = dose: 200.0 mg/kg/injection, schedule: Q01DX009 (ip), vehicle: saline with Tween-80
[10] = dose: 100.0 mg/kg/injection, schedule: Q01DX009 (ip), vehicle: Klucel (hydroxypropylcellulose) (HPC)
[11] = dose: 200.0 mg/kg/injection, schedule: Q01DX009 (ip), vehicle: Klucel (hydroxypropylcellulose) (HPC)
[12] = dose: 400.0 mg/kg/injection, schedule: Q01DX009 (ip), vehicle: Klucel (hydroxypropylcellulose) (HPC)
[13] = dose: 50.0 mg/kg/injection, schedule: Q01DX001 (ip), vehicle: saline
[14] = dose: 100.0 mg/kg/injection, schedule: Q01DX001 (ip), vehicle: saline
[15] = dose: 200.0 mg/kg/injection, schedule: Q01DX001 (ip), vehicle: saline
[16] = dose: 400.0 mg/kg/injection, schedule: Q01DX001 (ip), vehicle: saline
[17] = dose: 100.0 mg/kg/injection, schedule: Q01DX001 (ip), vehicle: Klucel (hydroxypropylcellulose) (HPC)
[18] = dose: 200.0 mg/kg/injection, schedule: Q01DX001 (ip), vehicle: Klucel (hydroxypropylcellulose) (HPC)
[19] = dose: 400.0 mg/kg/injection, schedule: Q01DX001 (ip), vehicle: Klucel (hydroxypropylcellulose) (HPC)

Measured: T/C

CCN(CC)CC(=O)NC(CCN(C)C)c1cccc2ccccc12 (stereo unspecified)
inactive: dose: 25.0 mg/kg/injection, schedule: Q04DX002 (ip), vehicle: saline 103 % of control | dose: 50.0 mg/kg/injection, schedule: Q04DX002 (ip), vehicle: saline 103 % of control | dose: 100.0 mg/kg/injection, schedule: Q04DX002 (ip), vehicle: saline 98 % of control

CC(C)OC(=O)c1ccc(N)cc1S(N)(=O)=O
inactive: dose: 100.0 mg/kg/injection, schedule: Q01DX001 (ip), vehicle: other 106 % of control

NC(=S)N/N=C/c1ccc(-c2ccccc2)cc1
inactive: dose: 25.0 mg/kg/injection, schedule: Q01DX009 (ip), vehicle: saline with Tween-80 103 % of control | [1] 113 % of control | [2] 97 % of control | [3] 100 % of control | [4] 103 % of control | [5] 101 % of control

CC(=O)N(C)C
inactive: dose: 62.5 mg/kg/injection, schedule: Q01DX010 (ip), vehicle: saline 94 % of control and 97 % of control | dose: 125.0 mg/kg/injection, schedule: Q01DX010 (ip), vehicle: saline 105 % of control and 91 % of control | dose: 250.0 mg/kg/injection, schedule: Q01DX010 (ip), vehicle: saline 103 % of control and 91 % of control | dose: 500.0 mg/kg/injection, schedule: Q01DX001 (ip), vehicle: saline 101 % of control | dose: 500.0 mg/kg/injection, schedule: Q01DX010 (ip), vehicle: saline 100 % of control and 89 % of control | dose: 900.0 mg/kg/injection, schedule: Q01DX Z (ip), vehicle: other 106 % of control | dose: 1000.0 mg/kg/injection, schedule: Q01DX001 (ip), vehicle: saline 100 % of control | dose: 2000.0 mg/kg/injection, schedule: Q01DX001 (ip), vehicle: saline 97 % of control | dose: 3000.0 mg/kg/injection, schedule: Q01DX Z (ip), vehicle: other 87 % of control

CC12CCC(c3cn(C(=O)c4cccnc4)nc31)C2(C)C (stereo unspecified)
inactive: [6] 92 % of control | [7] 97 % of control | [8] 95 % of control

[O-][n+]1ccccc1Cc1ccccc1
inactive: [1] 90 % of control | [3] 90 % of control | dose: 100.0 mg/kg/injection, schedule: Q04DX002 (ip), vehicle: saline with Tween-80 97 % of control | [9] 90 % of control | dose: 200.0 mg/kg/injection, schedule: Q04DX002 (ip), vehicle: saline with Tween-80 101 % of control | dose: 400.0 mg/kg/injection, schedule: Q04DX002 (ip), vehicle: saline with Tween-80 101 % of control

O=C(NC(Cc1cnc[nH]1)C(=O)O)OCc1ccccc1 (stereo unspecified)
inactive: [3] 100 % of control | dose: 100.0 mg/kg/injection, schedule: Q04DX003 (ip), vehicle: saline with Tween-80 100 % of control | [9] 100 % of control | dose: 200.0 mg/kg/injection, schedule: Q04DX003 (ip), vehicle: saline with Tween-80 98 % of control | dose: 400.0 mg/kg/injection, schedule: Q01DX009 (ip), vehicle: saline with Tween-80 96 % of control | dose: 400.0 mg/kg/injection, schedule: Q04DX003 (ip), vehicle: saline with Tween-80 101 % of control

S=c1sscc1-c1ccccc1
inactive: dose: 50.0 mg/kg/injection, schedule: Q04DX003 (ip), vehicle: Klucel (hydroxypropylcellulose) (HPC) 95 % of control | [10] 108 % of control | [6] 111 % of control | [11] 112 % of control | [7] 95 % of control | [12] 110 % of control | [8] 98 % of control

Cc1cccc(C)c1N1C(=O)C2C(C1=O)C1(Cl)C(Cl)=C(Cl)C2(Cl)C1(Cl)Cl (stereo unspecified)
inactive: dose: 50.0 mg/kg/injection, schedule: Q01DX009 (ip), vehicle: Klucel (hydroxypropylcellulose) (HPC) 95 % of control | [10] 101 % of control | [6] 114 % of control | [7] 101 % of control

CCOC(=O)C(C(=O)OCC)c1ccc(Cl)cc1
inactive: [13] 101 % of control | [14] 101 % of control | [15] 101 % of control | [16] 106 % of control

O=C(COCC(=O)N/N=C/c1c(O)ccc2ccccc12)N/N=C/c1c(O)ccc2ccccc12
inactive: [10] 98 % of control | [11] 89 % of control | [12] 95 % of control

COc1ccc(C(N)C(=O)O)cc1 (stereo unspecified)
inactive: [13] 94 % of control | dose: 75.0 mg/kg/injection, schedule: Q01DX009 (ip), vehicle: Klucel (hydroxypropylcellulose) (HPC) 110 % of control | [17] 96 % of control | [14] 94 % of control | dose: 150.0 mg/kg/injection, schedule: Q01DX009 (ip), vehicle: Klucel (hydroxypropylcellulose) (HPC) 113 % of control | [18] 97 % of control | [15] 96 % of control | dose: 300.0 mg/kg/injection, schedule: Q01DX009 (ip), vehicle: Klucel (hydroxypropylcellulose) (HPC) 101 % of control | [19] 92 % of control | [16] 96 % of control

CC(COc1cc(Cl)c(Cl)cc1Cl)OC(=O)COc1ccc(Cl)cc1Cl (stereo unspecified)
inactive: [14] 88 % of control | [15] 95 % of control | [16] 95 % of control

O=C(O)c1cc(-c2ccccc2Cl)nc2ccccc12
inactive: [14] 96 % of control | [15] 94 % of control | [16] 97 % of control

O=S(=O)(/N=C1\C=CC(Br)=C\C1=N/S(=O)(=O)c1ccccc1)c1ccccc1
inactive: [17] 89 % of control | [18] 106 % of control | [19] 101 % of control

COc1ccc(C(C)=O)cc1CCC=O
inactive: [2] 97 % of control | [4] 97 % of control | [5] 97 % of control

C/C(=N/N=C(N)N)C(C)C
inactive: dose: 15.0 mg/kg/injection, schedule: Q01DX Z (ip), vehicle: carboxymethylcellulose (CMC) 102 % of control | dose: 27.0 mg/kg/injection, schedule: Q01DX Z (oral), vehicle: carboxymethylcellulose (CMC) 95 % of control | dose: 30.0 mg/kg/injection, schedule: Q01DX Z (ip), vehicle: carboxymethylcellulose (CMC) 100 % of control | dose: 40.0 mg/kg/injection, schedule: Q01DX Z (oral), vehicle: carboxymethylcellulose (CMC) 98 % of control | dose: 60.0 mg/kg/injection, schedule: Q01DX Z (ip), vehicle: carboxymethylcellulose (CMC) 92 % of control | dose: 60.0 mg/kg/injection, schedule: Q01DX Z (oral), vehicle: carboxymethylcellulose (CMC) 106 % of control | dose: 90.0 mg/kg/injection, schedule: Q01DX Z (oral), vehicle: carboxymethylcellulose (CMC) 98 % of control | dose: 120.0 mg/kg/injection, schedule: Q01DX Z (oral), vehicle: carboxymethylcellulose (CMC) 101 % of control | dose: 135.0 mg/kg/injection, schedule: Q01DX Z (oral), vehicle: carboxymethylcellulose (CMC) 97 % of control

Nc1nc2[nH]cnc(=S)c2[nH]1
inactive: dose: 75.0 mg/kg/injection, schedule: Q01DX001 (ip), vehicle: saline 101 % of control

O=S(=O)(Nc1nccs1)c1ccc(NN=Nc2c(Cl)cc(Cl)cc2Cl)cc1
inactive: [10] 96 % of control | [11] 96 % of control | [12] 97 % of control

O=c1ccnc(SCc2ccc(Cl)cc2)[nH]1
inactive: dose: 110.0 mg/kg/injection, schedule: Q01DX Z (ip), vehicle: methylcellulose (MC) 87 % of control

CCCCOCC(C)O (stereo unspecified)
inactive: dose: 100.0 mg/kg/injection, schedule: Q04DX003 (ip), vehicle: saline 91 % of control | dose: 200.0 mg/kg/injection, schedule: Q04DX003 (ip), vehicle: saline 96 % of control | dose: 400.0 mg/kg/injection, schedule: Q04DX003 (ip), vehicle: saline 96 % of control
